Reference: article PMC4846832, “Discovery of new MD2 inhibitor from chalcone derivatives with anti-inflammatory effects in LPS-induced acute lung injury” (Scientific Reports, 2016)

Biological target: T1, MD2 (myeloid differentiation protein 2) (Homo sapiens, UniProt Q9Y6Y9)
T1 construct: gene LY96; recombinant human MD2 (rhMD2)
T1 sequence (Q9Y6Y9 19-160): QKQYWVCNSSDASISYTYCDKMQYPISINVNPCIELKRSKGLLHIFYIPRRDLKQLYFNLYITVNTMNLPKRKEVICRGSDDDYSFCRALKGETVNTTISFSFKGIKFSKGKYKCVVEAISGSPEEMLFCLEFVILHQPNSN
Test: SPR (ProteOn XPR36); supported by bis-ANS displacement and biotin-LPS competitive ELISA
Type: binding

**Q.** How did the Kd turn out when `COc1ccc(C(=O)/C=C/c2cc(OC)c(OC)c(OC)c2)cc1OC` [compound 20] was run?
**A.** 189 µM
